The record followed here is US20240150368A1, “ULK INHIBITORS AND METHODS OF USE THEREOF” (Deciphera Pharmaceuticals, LLC, priority 2022, published 2024).

The test system of this assay is ULK kinase substrate ATG13 (pS318-ATG13) in A549 (KRAS mutant) cells. As to the kind of experiment: pATG13 levels of mutant KRas A549 cells after treatment with ULK inhibitors in combination with trametinib (ELISA). It counts as cell-based, human. The gist of the method: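 A549 cells grown overnight were treated with a test-compound dose response plus trametinib at 250 nM final (or DMSO) overnight at 37° C. Lysates were assayed by total-ATG13 capture and biotinylated pS318-ATG13 detection ELISA (450 nm minus 540 nm background); % phosphorylation versus controls gave IC50 values.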
On the technique in general: ELISA stands for enzyme-linked immunosorbent assay.
As to `CC/C(Nc1cnn(C(C)C)c1)=C1/C(=O)Nc2ccc(C(=O)NCC3CCC(C)(C)O3)cc21` (centres unmarked) [Example 137], the IC50 was 300 to 600 nM.
Turning to `CC/C(Nc1cnn(C2CCN(C(C)C)CC2)c1)=C1/C(=O)Nc2ccc(C(=O)NCC3CC(F)(F)C3)cc21` [Example 30], the IC50 is 100 to 300 nM.
`CC/C(Nc1cn[nH]c1)=C1/C(=O)Nc2ccc(C(=O)NCC(F)(F)F)cc21` [Example 108]: the IC50 is more than 600 nM.
As for `CC/C(Nc1cnn(C(C)C)c1)=C1/C(=O)Nc2ccc(C(=O)NCC3(F)CC3)cc21` [Example 152], the IC50 is not above 100 nM.
Next, `CC/C(Nc1cnn(C2CCN(C(C)C)CC2)c1)=C1/C(=O)Nc2ccc(C(=O)NCC(C)(C)O)cc21` [Example 28]: more than 600 nM.
As for `CC/C(Nc1cnn(C2CCOCC2)c1)=C1/C(=O)Nc2ccc(C(=O)NCC(F)(F)F)cc21` [Example 106], the figure is 100 to 300 nM; as for `CC/C(Nc1cn(C(C)C)nn1)=C1/C(=O)Nc2ccc(C(=O)NCC(F)(F)F)cc21` [Example 122], more than 600 nM; as for `CC/C(Nc1cnn(C)c1)=C1/C(=O)Nc2ccc(C(=O)NCC3(F)CC3)cc21` [Example 154], not above 100 nM.
Next, `CC/C(Nc1cnn(C(C)C)c1)=C1/C(=O)Nc2ccc(C(=O)NCC3(C)CCOC3)cc21` (centres unmarked) [Example 168]: 300 to 600 nM; `CC/C(Nc1cnc(N2CCN(C(C)C)CC2)cn1)=C1/C(=O)Nc2ccc(C(=O)NCC(F)(F)F)cc21` [Example 94]: 100 to 300 nM.
On to `CC/C(Nc1cnn(C(F)(F)F)c1)=C1/C(=O)Nc2ccc(C(=O)NCC(C)C)cc21` [Example 169], for which the IC50 is 100 to 300 nM.
Next, `CC/C(Nc1cccnc1)=C1/C(=O)Nc2ccc(C(=O)NCC(F)(F)F)cc21` [Example 124]: more than 600 nM; `CC/C(Nc1cnn(C2CCN(C(C)C)CC2)c1)=C1/C(=O)Nc2ccc(C(=O)NCC3CC3)cc21` [Example 42]: not above 100 nM.
As for `CC/C(Nc1cnn(C(C)C)c1)=C1/C(=O)Nc2ccc(C(=O)NC[C@H]3CCCO3)cc21` [Example 95], the figure is not above 100 nM.
On to `CC/C(Nc1ccc2nn(C(C)C)cc2c1)=C1/C(=O)Nc2ccc(C(=O)NCC(F)(F)F)cc21` [Example 142], for which the IC50 lay in the range of 300 to 600 nM.
Turning to `C/C(Nc1cnn(C(C)C)c1)=C1/C(=O)Nc2ccc(C(=O)NCC(F)(F)F)cc21` [Example 101], the 50% inhibitory concentration (IC50) is not above 100 nM.
For the compound `CC/C(Nc1cnn(CCOC)c1)=C1/C(=O)Nc2ccc(C(=O)NCC(F)(F)F)cc21` [Example 102], the IC50 is 100 to 300 nM.
As for `CC/C(Nc1cnn(C(C)C)c1)=C1/C(=O)Nc2ccc(C(=O)NCC3CC(F)(F)C3)cc21` [Example 134], the figure is not above 100 nM; as for `CC/C(Nc1cnn(C2CCN(C(C)C)CC2)c1)=C1/C(=O)Nc2ccc(C(=O)NCCC(F)(F)F)cc21` [Example 31], not above 100 nM.
Next, `CC/C(Nc1cnn(CC(F)(F)F)c1)=C1/C(=O)Nc2ccc(C(=O)NCC(C)(C)F)cc21` [Example 160]: 100 to 300 nM; `CC/C(Nc1cnn(C2CCN(C(C)C)CC2)c1)=C1/C(=O)Nc2ccc(C(=O)NC3CC(F)(F)C3)cc21` [Example 29]: 300 to 600 nM; `CC/C(Nc1cnn(C(C)C)c1)=C1/C(=O)Nc2ccc(C(=O)NCCOC)cc21` [Example 126]: 300 to 600 nM.
Next, `CC/C(Nc1cnn(C(C)C)c1)=C1/C(=O)Nc2ccc(C(=O)NCCC#N)cc21` [Example 127]: more than 600 nM; `CC/C(Nc1ccccn1)=C1/C(=O)Nc2ccc(C(=O)NCC(F)(F)F)cc21` [Example 145]: 100 to 300 nM.
Turning to `CC/C(Nc1cnn(C(C)C)c1)=C1/C(=O)Nc2ccc(C(=O)N[C@H](C)C(F)(F)F)cc21` [Example 119], the IC50 was not above 100 nM.
`CC/C(Nc1cnn(C(C)C)c1)=C1/C(=O)Nc2ccc(C(=O)NC[C@@H](C)OC)cc21` [Example 128]: the 50% inhibitory concentration (IC50) was 300 to 600 nM.
Next, `CC/C(Nc1cnn(C2CCN(C3CCOCC3)CC2)c1)=C1/C(=O)Nc2ccc(C(=O)NCC(C)C)cc21` [Example 37]: not above 100 nM; `CC/C(Nc1cnn(C)c1)=C1/C(=O)Nc2ccc(C(=O)NC[C@H]3CCCO3)cc21` [Example 55]: 100 to 300 nM.
As for `CC/C(Nc1cnn(C(C)C)c1)=C1/C(=O)Nc2ccc(C(=O)NCC3(C)COC3)cc21` [Example 5, (Z)-3-(1-((1-isopropyl-1H-pyrazol-4-yl)amino)propylidene)-N-((3-methyloxetan-3-yl)methyl)-2-oxoindoline-5-carboxamide], the figure is more than 600 nM; as for `CC/C(Nc1cnn(C2CCN(C(C)C)CC2)c1)=C1/C(=O)Nc2ccc(C(=O)NCC3CCC(C4CC4)O3)cc21` (centres unmarked) [Example 3, (Z)—N-((5-cyclopropyltetrahydrofuran-2-yl)methyl)-3-(1-((1-(1-isopropylpiperidin-4-yl)-1H-pyrazol-4-yl)amino)propylidene)-2-oxoindoline-5-carboxamide], 100 to 300 nM.
As for `CC/C(Nc1cnn(C2CCOCC2)c1)=C1/C(=O)Nc2ccc(C(=O)NCC(C)(C)F)cc21` [Example 173], the figure is not above 100 nM; as for `CC/C(Nc1ccc(N2CCN(C(C)C)CC2)cc1)=C1/C(=O)Nc2cc(F)c(C(=O)NCC(F)(F)F)cc21` [Example 100], 300 to 600 nM; as for `CC/C(Nc1cnn(C2CC(F)(F)C2)c1)=C1/C(=O)Nc2ccc(C(=O)NCC(F)(F)F)cc21` [Example 144], not above 100 nM.
As for `CC/C(Nc1cnn(C2CCN(C(C)C)CC2)c1)=C1/C(=O)Nc2ccc(C(=O)NCC3CCO3)cc21` (centres unmarked) [Example 21], the IC50 is more than 600 nM.
Turning to `CC/C(Nc1cnn(CC)c1)=C1/C(=O)Nc2ccc(C(=O)NCC3(F)CC3)cc21` [Example 153], the IC50 was not above 100 nM.
As for `CC/C(Nc1cnn([C@H]2CCOC2)c1)=C1/C(=O)Nc2ccc(C(=O)NCC(F)(F)F)cc21` [Example 104], the figure is not above 100 nM.
In the case of `CC/C(Nc1cnn(C(C)C)c1)=C1/C(=O)Nc2ccc(C(=O)NCC3(C#N)CC3)cc21` [Example 156], the concentration for half-maximal inhibition (IC50) was not above 100 nM.
Take `CC/C(Nc1cnn([C@@H]2CCOC2)c1)=C1/C(=O)Nc2ccc(C(=O)NCC(F)(F)F)cc21` [Example 105]: the half-maximal inhibitory concentration (IC50) is not above 100 nM.
With `CC/C(Nc1cnn(C(C)C)c1)=C1/C(=O)Nc2ccc(C(=O)N(C)CC(F)(F)F)cc21` [Example 125], the IC50 is 300 to 600 nM.
Next, `CC/C(Nc1cnn(CCN(C)C)c1)=C1/C(=O)Nc2ccc(C(=O)NCC(F)(F)F)cc21` [Example 103]: 300 to 600 nM; `CC/C(Nc1cnn(CC(C)OC)c1)=C1/C(=O)Nc2ccc(C(=O)NCC(F)(F)F)cc21` (centres unmarked) [Example 158]: 100 to 300 nM; `CC/C(Nc1cnn(C(C)C)c1)=C1/C(=O)Nc2ccc(C(=O)NCC(F)F)cc21` [Example 112]: not above 100 nM.
Turning to `CC/C(Nc1cnn(C(C)C)c1)=C1/C(=O)Nc2ccc(C(=O)NCC3CCC4(CCC4)O3)cc21` (centres unmarked) [Example 138], the concentration for half-maximal inhibition (IC50) was more than 600 nM.
Next, `CC/C(Nc1cnn(C2CC2)c1)=C1/C(=O)Nc2ccc(C(=O)NCC(F)(F)F)cc21` [Example 116]: not above 100 nM.
As for `CC/C(Nc1cc(C(F)(F)F)ccn1)=C1/C(=O)Nc2ccc(C(=O)NCC(F)(F)F)cc21` [Example 149], the IC50 is 100 to 300 nM.
Next, `CC/C(Nc1cnn(CC(F)F)c1)=C1/C(=O)Nc2ccc(C(=O)NCC(C)(C)F)cc21` [Example 161]: not above 100 nM.
For `CC/C(Nc1cnn(C(C)C)c1)=C1/C(=O)Nc2ccc(C(=O)NCCOC(F)(F)F)cc21` [Example 136], the IC50 lay in the range of 100 to 300 nM.

As usually defined, the IC50 is the concentration that inhibits the measured activity by half.
